Results on 26 compounds are retold here after patent US5750754A, “Heterocyclic compounds” (Zeneca Limited, priority 1993, dated 1998).

Structures can show the parent of a compound that is named as a salt. A value given as a limit tells only on which side of the number the result lay.

Assay [1] concerns the target T1, human, citrated, platelet-rich plasma (Homo sapiens, UniProt P05106+P08514).
T1 construct: aggregating human, citrated, platelet-rich plasma; endogenous in cells; host or cells: human platelets in citrated platelet-rich plasma
Nature of the assay: Test (a): inhibition of ADP stimulated platelet aggregation (Born). The assay is classed as cell-based. The note with it: ADP induced aggregation of human platelet-rich plasma; read-out: Test (a): pA2 value indicating potency of platelet aggregation inhibition (converted). The procedure, abridged: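 pA2 calculated by comparing ADP EC50-type (50% response) values in presence and absence of compound, averaged across concentrations (generally 10-^5 M to 10-^10 M). Aggregation (Born) induced by ADP in citrated human platelet-rich plasma, giving dose-response curves.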

Assay [2] deals with T2, purified human platelet fibrinogen receptor (GPIIb/IIIa) (Homo sapiens, UniProt P05106+P08514).
T2 construct: is isolated from human platelet lysates; from tissue
The assay can be described thus: Test (b): GPIIb/IIIa ELISA, inhibition of biotinylated fibrinogen binding. The note with it: purified human platelet GPIIb/IIIa, ELISA; read-out: Test (b): pIC50 (-log(IC50)), 50% inhibition of biotinylated fibrinogen binding to GPIIb/IIIa (converted). In short, it runs like this:
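Inhibition of biotinylated fibrinogen ([…]) binding to immobilised human platelet fibrinogen receptor, purified by KYGRGDS peptide affinity chromatography, was measured after 2 h at 30 °C. Readout: streptavidin–biotin-HRP colour with TMB at […]; value expressed as pIC50.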

T2 sequence (P08514 32-887 limits assumed): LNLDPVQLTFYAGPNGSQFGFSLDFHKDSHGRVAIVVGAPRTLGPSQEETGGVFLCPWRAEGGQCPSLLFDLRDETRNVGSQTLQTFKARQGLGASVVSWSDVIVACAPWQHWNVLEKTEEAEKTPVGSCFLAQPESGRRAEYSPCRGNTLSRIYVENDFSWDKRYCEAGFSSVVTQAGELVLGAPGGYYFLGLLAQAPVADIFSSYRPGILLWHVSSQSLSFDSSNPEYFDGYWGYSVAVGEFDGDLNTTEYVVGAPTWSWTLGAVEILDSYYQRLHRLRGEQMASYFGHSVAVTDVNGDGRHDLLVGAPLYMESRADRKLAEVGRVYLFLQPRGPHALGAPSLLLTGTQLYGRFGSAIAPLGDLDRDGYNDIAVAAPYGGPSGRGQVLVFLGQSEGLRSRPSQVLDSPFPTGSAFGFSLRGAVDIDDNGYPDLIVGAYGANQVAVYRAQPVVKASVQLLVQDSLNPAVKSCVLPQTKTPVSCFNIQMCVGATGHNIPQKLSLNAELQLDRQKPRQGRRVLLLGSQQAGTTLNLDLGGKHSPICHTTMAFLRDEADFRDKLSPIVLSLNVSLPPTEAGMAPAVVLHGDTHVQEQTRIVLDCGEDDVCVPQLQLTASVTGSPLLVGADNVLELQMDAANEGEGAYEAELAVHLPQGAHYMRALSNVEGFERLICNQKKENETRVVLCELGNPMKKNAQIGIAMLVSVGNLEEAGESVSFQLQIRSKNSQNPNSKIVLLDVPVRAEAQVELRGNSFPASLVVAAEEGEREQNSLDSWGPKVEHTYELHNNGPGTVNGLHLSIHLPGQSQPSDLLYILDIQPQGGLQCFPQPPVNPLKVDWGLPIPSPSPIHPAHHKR
T2 sequence (P08514 891-1039 limits assumed): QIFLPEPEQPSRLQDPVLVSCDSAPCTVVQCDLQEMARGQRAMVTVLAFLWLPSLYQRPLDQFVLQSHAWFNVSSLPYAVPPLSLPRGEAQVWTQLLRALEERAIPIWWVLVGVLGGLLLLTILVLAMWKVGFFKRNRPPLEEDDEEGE
T2 sequence (P05106 27-788): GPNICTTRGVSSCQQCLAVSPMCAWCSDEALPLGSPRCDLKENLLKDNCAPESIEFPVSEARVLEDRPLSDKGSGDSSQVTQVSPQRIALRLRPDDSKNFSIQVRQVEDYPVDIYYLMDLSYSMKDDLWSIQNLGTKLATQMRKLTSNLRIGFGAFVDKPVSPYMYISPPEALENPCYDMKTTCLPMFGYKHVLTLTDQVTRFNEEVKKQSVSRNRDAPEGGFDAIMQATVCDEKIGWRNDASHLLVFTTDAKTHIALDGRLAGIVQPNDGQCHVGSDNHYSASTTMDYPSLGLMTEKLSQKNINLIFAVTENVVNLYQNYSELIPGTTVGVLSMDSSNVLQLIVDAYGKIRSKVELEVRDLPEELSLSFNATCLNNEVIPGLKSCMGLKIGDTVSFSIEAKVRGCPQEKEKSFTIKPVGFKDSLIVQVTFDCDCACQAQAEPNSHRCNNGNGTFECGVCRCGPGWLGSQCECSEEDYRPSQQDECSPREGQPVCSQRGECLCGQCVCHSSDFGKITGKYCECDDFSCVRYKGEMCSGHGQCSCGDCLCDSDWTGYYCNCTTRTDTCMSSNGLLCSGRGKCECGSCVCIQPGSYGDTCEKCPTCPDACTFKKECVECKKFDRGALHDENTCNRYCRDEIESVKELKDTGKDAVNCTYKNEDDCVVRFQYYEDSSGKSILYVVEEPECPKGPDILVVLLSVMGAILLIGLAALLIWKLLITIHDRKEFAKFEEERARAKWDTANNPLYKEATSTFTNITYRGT
T1 sequence (P08514 32-887 limits assumed): as the sequence (P08514 32-887 limits assumed) above
T1 sequence (P08514 891-1039 limits assumed): as the sequence (P08514 891-1039 limits assumed) above
T1 sequence (P05106 27-788): as the sequence (P05106 27-788) above

On to `O=C(O)COc1ccc2c(=O)c(N3CCN(c4ccncc4)CC3)cn(Cc3ccccc3)c2c1` [Example 49, [1-Benzyl-3-[4-(4-pyridyl)piperazin-1-yl]-4-quinolon-7-yl]oxyacetic acid trifluoroacetate salt], for which the Kb in assay [1] was 79.4 nM. Besides, the IC50 in assay [2] is 6.31 nM.
On the same counts, the results for `COC(=O)CCCc1ccc(CN2CCN(c3ccncc3)CC2)cc1` [Example 178, Methyl 4-[4-[4-(4-pyridyl)piperazin-1-yl]methylphenyl]butyrate] are 3160 nM and 1000 nM.
On the same counts, the results for `COC(=O)COc1ccc(C(=O)CN2CCN(c3cc(C)nc(C)c3)CC2)cc1` [Example 153, Methyl [2-[4-(2,6-dimethylpyrid-4-yl)piperazin-1-yl]acetyl]phenoxyacetate, hydrobromide] are 15800 nM and 50100 nM.
On the same counts, the results for `CCCCS(=O)(=O)NC(Cc1ccc(CN2CCN(c3ccncc3)CC2)cc1)C(=O)O` (racemic) [Example 68, 2-RS-(n-Butylsulphonylamino)-3-[4-(4-pyridyl)piperazin-1-ylmethylene]phenylpropionic acid] are 316 nM and 12.6 nM.
Take `O=C(O)COc1ccc2nccc(N3CCN(c4ccncc4)CC3)c2c1` [Example 71, 4-[[4-(4-Pyridyl)piperazin-1-yl]quinolin-6-yl]oxyacetic acid]: the Kb in assay [1] is 12600 nM. Further, in assay [2], the IC50 was 39800 nM.
The matching figures for `CCCCS(=O)(=O)N[C@@H](Cc1ccc(OCCC2CCN(c3ccncc3)CC2)cc1)C(=O)OC` [Example 35, Methyl 2-S-(n-butylsulphonylamino)-3-[4-[2-[1-(4-pyridyl)piperidin-4-yl]ethoxy]phenyl]propionate]: 398 nM and 63.1 nM.
On the same counts, the results for `COCCNC(=O)COc1ccc(C(=O)CN2CCN(c3ccncc3)CC2)cc1` [Example 144, 2-[4-[2-[4-(4-Pyridyl)piperazin-1-yl]acetyl]phenoxy]-N-(2-methoxymethyl)-acetamide] are 5010 nM and 5010 nM.
On the same counts, the results for `CCCCC(=O)N[C@@H](Cc1ccc(OCCC2CCN(c3ccncc3)CC2)cc1)C(=O)OC` [Example 91, Methyl 2-S-(pentanoylamino)-3-[4-[2-[1-(4-pyridyl)piperidin-4-yl]ethoxy]phenyl]propionate] are 158 nM and 200 nM.
Take `NC(=O)COc1ccc(C(=O)CN2CCN(c3ccncc3)CC2)cc1` [Example 142, 4-[2-[4-(4-Pyridyl)piperazin-1-yl]acetyl]phenoxyacetamide]: the Kb in assay [1] is 5010 nM. The IC50 in assay [2] was 5010 nM.
With `COC(=O)COc1ccc(C(=O)CN2CCN(c3ccncc3)CC2)c(C)c1` [Example 118, Methyl 4-[2-[4-(4-pyridyl)piperazin-1-yl]acetyl]-3-methylphenoxyacetate], the Kb in assay [1] was 200 nM. For the same compound, the IC50 in assay [2] was 398 nM.
Take `O=C(O)COc1ccc(OCC2CCN(c3ccncc3)CC2)cc1` [Example 158, 4-[1-(4-Pyridyl)piperidin-4-yl]methoxyphenoxyacetic acid.]: the Kb in assay [1] is 631 nM. The IC50 in assay [2] is 100 nM.
Take `C=CCc1cc(N2CCN(c3ccncc3)CC2)ccc1OCCCC(=O)O` [Example 206]: in assay [1], the Kb was 251 nM. Further, the IC50 in assay [2] was 10 nM.
The matching figures for `CCCCS(=O)(=O)N[C@@H](Cc1ccc(OCCCCC2CCN(c3ccncc3)CC2)cc1)C(=O)OC` [Example 83, Methyl 2-S-(butylsulphonylamino)-3-[4-[4-[1-(4-pyridyl)piperidin-4-yl]-butoxy]phenyl]propionate]: 39800 nM and 2000 nM.
On the same counts, the results for `Cc1cc(C(=O)CN2CCN(c3ccncc3)CC2)ccc1OCC(=O)O` [Example 127, 4-[2-[4-(4-Pyridyl)piperazin-1-yl]acetyl]-2-methyl-phenoxyacetic acid, dihydrochloride] are 1580 nM and 200 nM.
On the same counts, the results for `COC(=O)COc1ccc(C(=O)CN2CCN(c3ccncc3)CC2)cc1OCC(=O)OC` [Example 3] are 501 nM and 251 nM.
As for `CCCCS(=O)(=O)NC(Cc1ccc(C(=O)CN2CCN(c3ccncc3)CC2)cc1)C(=O)OC` (racemic) [Example 66, Methyl 2-RS-(n-butylsulphonylamino)-3-[4-[2-[4-(4-pyridyl)piperazin-1-yl]acetyl]phenyl]propionate], the Kb in assay [1] was 2000 nM. Also, in assay [2], the IC50 is 251 nM.
On the same counts, the results for `CCCCS(=O)(=O)N[C@H](Cc1ccc(OCC2CCN(c3ccncc3)CC2)cc1)C(=O)OC` [Example 100, Methyl 2-R-(n-butylsulphonylamino)-3-[4-[1-(4-pyridyl)piperidin-4-yl]methoxyphenyl]propionate] are 39800 nM and 3980 nM.
The matching figures for `CS(=O)(=O)NCCc1ccc(NC(=O)C2CCN(c3ccncc3)CC2)cc1` [Example 183, N-[2-[4-[1-(4-Pyridyl)piperidin-4-yl]carboxamidophenyl]ethyl]methanesulphonamide]: 31600 nM and above 100000 nM.
The matching figures for `COC(=O)COc1ccc(NC(=O)N2CCN(c3ccncc3)CC2)cc1` [Example 63, Methyl 4-[[4-(4-pyridyl)piperazin-1-yl]carboxamido]phenoxy acetate]: 126 nM and 316 nM.
On to `COC(=O)[C@H](Cc1ccccc1)NC(=O)c1ccc(N2CCN(c3ccncc3)CC2)cc1` [Example 190, N[4-[(4-Pyridyl)piperazin-1-yl]benzoyl]-L-phenylalanine, methyl ester], for which the Kb in assay [1] is 63100 nM. The IC50 in assay [2] is 20000 nM.
The matching figures for `COC(=O)COc1ccc(C(=O)C(C)(C)N2CCN(c3ccncc3)CC2)cc1` [Example 175, Methyl 4-[2-[4-(4-pyridyl)piperazin-1yl]-2,2-dimethylacetyl]-phenoxyacetate]: 1260 nM and 631 nM.
The matching figures for `COC(=O)COc1ccc(C(=O)CN2CCN(c3ccncc3)CC2=O)cc1` [Example 61, Methyl 4-[2-[4-(4-pyridyl)piperazin-2-one-1-yl]acetyl]phenoxyacetate]: 31.6 nM and 200 nM.
The matching figures for `COCCNC(=O)COC1CCN(C(=O)CN2CCN(c3ccncc3)CC2)CC1` [Example 107, N-2-Methoxyethyl 1-[2-[4-(4-pyridyl)piperazin-1-yl]acetyl]-piperidin-4-yloxyacetamide]: 31600 nM and above 100000 nM.
In the case of `COC(=O)COc1ccc(CCN2CCN(c3ccncc3)CC2)cc1` [Example 147, Methyl 4-[2-[4-(4-pyridyl)piperazin-1-yl]ethyl]phenoxyacetate], the Kb in assay [1] was 398 nM. In addition, the IC50 in assay [2] was 631 nM.
The matching figures for `COC(=O)CC(NS(=O)(=O)c1ccc(C)cc1)c1ccc(OCC2CCN(c3ccncc3)CC2)cc1` (stereo not shown) [Example 99, Methyl 3-(4-methylphenylsulphonylamino)-3-[4-[1-(4-pyridyl)piperidin-4-yl]methoxyphenyl]propionate]: 3980 nM and 251 nM.
The matching figures for `O=C(O)CCCCOc1cccc(N2CCN(c3ccncc3)CC2)c1` [Example 229, 3-[4-(4-Pyridyl)piperazin-1-yl]phenoxypentanoic acid]: 3980 nM and 79.4 nM.
